Measurements published in article PMC5193075 (The Journal of Pharmacology and Experimental Therapeutics, 2017).

How the values were obtained:
[1] = system: cryopreserved human primary hepatocytes; experiment: Drug depletion; settings: for interdonor variability in unbound intrinsic clearance (IDV): individual-donor data; for interdonor variability in unbound intrinsic clearance (IDV) / interwell variability in unbound intrinsic clearance (IWV): parentheses = relative standard error; for CLint(u) ratio individual-donor/pooled hepatocytes: parentheses = 95% confidence intervals (Fieller's theorem)
[2] = Unbound drug fraction in cell culture medium by rapid equilibrium dialysis; format: in vitro ADME; settings: bovine, bovine serum albumin-containing cell culture medium
[3] = Prediction of in vivo hepatic clearance from liver MPS data; design: species or system human
[4] = individual-donor data (within donor)

| Compound | interdonor variability in unbound intrinsic clearance (IDV) [1] | fraction unbound [2] | interwell variability in unbound intrinsic clearance (IWV) [1, 4] | interdonor variability in unbound intrinsic clearance (IDV) ([1]; listed as phenacetin) | CLint(u) ratio individual-donor/pooled hepatocytes [1] | interwell variability in unbound intrinsic clearance (IWV) ([1]; pooled hepatocytes data) | fold-error (underprediction) of in vivo hepatic clearance ([3]; parallel tube (PT) liver model) | fold-error (underprediction) of in vivo hepatic clearance ([3]; well stirred (WS) liver model) |
| --- | --- | --- | --- | --- | --- | --- | --- | --- |
| CC(C)Cc1ccc(C(C)C(=O)O)cc1 (stereo not shown) [Ibuprofen, ibuprofen] |  | 0.31 |  |  |  |  |  |  |
| CCOc1ccc(NC(C)=O)cc1 [Phenacetin, phenacetin] | 24.1% (80.4%) CV% | 0.98 | 26.1% (65.2%) CV% | 24.1 CV% | 0.92 (0.61, 1.47) | 30.7% (41.5%) CV% | 1.7 fold | 2.1 fold |
| C[C@]12C=CC(=O)C=C1CC[C@@H]1[C@@H]2[C@@H](O)C[C@@]2(C)[C@H]1CC[C@]2(O)C(=O)CO [Prednisolone, prednisolone] | 29.3% (58.1%) CV% | 0.94 | 21.5% (70.0%) CV% |  | 0.89 (0.63, 1.16) |  |  |  |

Continued, values first:

| interdonor variability in unbound intrinsic clearance (IDV) [1] | fraction unbound [2] | interwell variability in unbound intrinsic clearance (IWV) [1, 4] | interdonor variability in unbound intrinsic clearance (IDV) ([1]; listed as phenacetin) | CLint(u) ratio individual-donor/pooled hepatocytes [1] | interwell variability in unbound intrinsic clearance (IWV) ([1]; pooled hepatocytes data) | fold-error (underprediction) of in vivo hepatic clearance ([3]; parallel tube (PT) liver model) | fold-error (underprediction) of in vivo hepatic clearance ([3]; well stirred (WS) liver model) | Compound |
| --- | --- | --- | --- | --- | --- | --- | --- | --- |
| 36.2% (71.5%) CV% | 0.13 |  |  |  |  |  |  | O=C(O)Cc1ccccc1Nc1c(Cl)cccc1Cl [Diclofenac, diclofenac] |
|  | 0.98 |  |  |  |  |  |  | CC(C)NCC(O)COc1cccc2ccccc12 (stereo not shown) [Propranolol, propranolol] |
